Measured values as given in patent US11322228B2, “Structure based design of d-protein ligands” (Janssen Vaccines & Prevention B.V., priority 2015, dated 2022).
Where a SMILES comes first, the peptide text is derived from it. Bridges are numbered along the chain shown (N, C = ends). Where no end group is shown, it is not given here. [ ]: non-standard residue; d: D form. d2Nal = N[C@H](Cc1ccc2ccccc2c1)C(=O)O; dNle = CCCC[C@@H](N)C(=O)O

How the values were obtained:
IL17A [1] = biological target: T1, IL17A (Homo sapiens, UniProt Q16552); assay: ELISA competition assay against Centyrin WPW-His on IL17A; format: binding
T1 sequence (Q16552 24-155): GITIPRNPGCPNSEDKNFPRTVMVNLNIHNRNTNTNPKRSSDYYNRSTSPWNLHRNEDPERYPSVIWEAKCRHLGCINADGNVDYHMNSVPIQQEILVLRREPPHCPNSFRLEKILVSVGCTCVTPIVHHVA
Excerpt: (§1) In order to assess the potential binding of the D-Proteins to IL17A at the binding site of CNT06785, the D-Proteins were screened in an ELISA competition assay against a known competitor of antibody CNT06785, Centyrin WPW-His. To show the specific binding to the epitope, negative control antibody CAT2200 was taken along that binds to a different, non-overlapping epitope on IL17A. […] Upper graphs show competition with centyrin WPW, lower graphs—with antibody CAT2200 binding to a non-overlapping epitope. Response is plotted as a function of logarithm of concentration.

IL17A [2] = biological target: T1, IL17A; assay: ELISA competition assay against negative control antibody CAT2200 (non-overlapping epitope) on IL17A; settings: antibody binding a non-overlapping epitope on IL17A
Excerpt: as §1

Influenza hemagglutinin [3] = assay: ELISA competition with head binding antibody CR11054 (non-overlapping epitope); settings: non-overlapping epitope on HA
Influenza hemagglutinin [4] = assay: ELISA assay for competition with designer protein HB80.4 (stem epitope); format: binding; settings: for competition with HB80.4 (result in words): stem binding HB80.4, competition ELISA on HA

Row | Compound | competition with centyrin WPW (result in words) (IL17A [1]) | competition with CAT2200 (result in words) (IL17A [2]) | competition with CR11054 (result in words) (Influenza hemagglutinin [3]) | competition with HB80.4 (result in words) (Influenza hemagglutinin [4]) | pIC50, competition with HB80.4 (Influenza hemagglutinin [4]; competition ELISA on HA) | IC50 (Influenza hemagglutinin [4]; competition ELISA on HA, read-out: IC50 given in brackets after pIC50, competition with HB80.4 (converted)) [µM]
1 | CCCC[C@H]1NC(=O)[C@@H](CCCCN)NC(=O)[C@@H](CCSC)NC(=O)[C@@H](CC(C)C)NC(=O)[C@@H](Cc2c[nH]cn2)NC(=O)[C@@H](CCCCN)NC(=O)[C@H]2CSSC[C@H]3NC(=O)[C@@H]([C@H](C)O)NC(=O)[C@@H](CCCCN)NC(=O)[C@@H](CCCNC(=N)N)NC(=O)[C@@H](CSSC[C@@H](NC(=O)[C@@H](Cc4ccccc4)NC(=O)[C@@H](CC(C)C)NC(=O)[C@@H](CCCCN)NC(=O)[C@H]4CCCN4C(=O)[C@@H](Cc4ccccc4)NC(=O)[C@@H]([C@H](C)O)NC(=O)[C@@H](C)NC(=O)[C@@H](CCC(N)=O)NC(=O)[C@H](NC(=O)[C@@H](CO)NC(=O)[C@H](N)CCCNC(=N)N)CSSC[C@H](C(=O)O)NC(=O)[C@@H]([C@H](C)O)NC(=O)CNC3=O)C(=O)N[C@H]([C@H](C)O)C(=O)N[C@H](C)C(=O)N[C@H](Cc3ccccc3)C(=O)N[C@H](CC(C)C)C(=O)N2)NC(=O)[C@@H](Cc2ccc3ccccc3c2)NC(=O)[C@@H](CO)NC(=O)[C@@H](CC(C)C)NC(=O)[C@@H](CCCNC(=N)N)NC1=O [DP142137, H-rscqatfpklfctaflckhlmkxrls<crktcGtc-OH] (H-[dR][dS][dC][dQ][dA][dT][dF][dP][dK][dL][dF][dC][dT][dA][dF][dL][dC][dK][dH][dL][dM][dK][dNle][dR][dL][dS][d2Nal][dC][dR][dK][dT][dC]G[dT][dC]-OH; disulfide 3-35, 12-28, 17-32) | clear binding curve | lack of activity |  |  |  | 
2 | H-rsciatepksfctaflckhlmkarlsycrktcGtc-OH (H-[dR][dS][dC][dI][dA][dT][dE][dP][dK][dS][dF][dC][dT][dA][dF][dL][dC][dK][dH][dL][dM][dK][dA][dR][dL][dS][dY][dC][dR][dK][dT][dC]G[dT][dC]-OH; cysteine pairing not given here) [DP141063] | lack of activity | lack of activity |  |  |  | 
3 | H-rscidtipksrctafqckhsmkyrlsfcrktcGtc-OH [DP141050, reference compound] | lack of activity | lack of activity | lack of activity |  |  | 
4 | H-rscqatepkyfctaflckhlmkarlsycrktcGtc-OH (H-[dR][dS][dC][dQ][dA][dT][dE][dP][dK][dY][dF][dC][dT][dA][dF][dL][dC][dK][dH][dL][dM][dK][dA][dR][dL][dS][dY][dC][dR][dK][dT][dC]G[dT][dC]-OH; cysteine pairing not given here) [DP141065] | lack of activity | lack of activity |  |  |  | 
5 | racprilkkcrrdsdcpGecickGnGycG (RACPRILKKCRRDSDCPGECICKGNGYCG) [DP141753, wild-type scaffold 2LJS as D-protein, negative control, reference compound] |  |  |  | no competition until the highest concentration |  | 
6 | rfcpsibkkcrrdsdcpG!cickGnGycG (RFCPSIXKKCRRDSDCPGXCICKGNGYCG; not fully specified (some residues); printed as rfcpsibkkcrrdsdcpG!cickGnGycG; cysteine pairing not given here) [DP142093, optimized HA hit, D-protein on scaffold 2LJS] |  |  | no competition | clear S-curve | 4.1 | 88
